Here are results for 6 molecules from ChEMBL document CHEMBL3608221, “Regulating the master regulator: Controlling heat shock factor 1 as a chemotherapy approach” (Bioorg Med Chem Lett, 2015).

In assay [1] the test system is HCT-116. The experiment in a line: Antitumor activity against human HCT116 cells xenografted in mouse assessed as reduction in tumor size at 50 mg/kg. It counts as functional. Background: In xenograft studies the graft and the host belong to different species.
For assay [2], the target named is T1, Heat shock factor protein 1 (Homo sapiens, UniProt Q00613).
T1 sequence (Q00613 whole entry): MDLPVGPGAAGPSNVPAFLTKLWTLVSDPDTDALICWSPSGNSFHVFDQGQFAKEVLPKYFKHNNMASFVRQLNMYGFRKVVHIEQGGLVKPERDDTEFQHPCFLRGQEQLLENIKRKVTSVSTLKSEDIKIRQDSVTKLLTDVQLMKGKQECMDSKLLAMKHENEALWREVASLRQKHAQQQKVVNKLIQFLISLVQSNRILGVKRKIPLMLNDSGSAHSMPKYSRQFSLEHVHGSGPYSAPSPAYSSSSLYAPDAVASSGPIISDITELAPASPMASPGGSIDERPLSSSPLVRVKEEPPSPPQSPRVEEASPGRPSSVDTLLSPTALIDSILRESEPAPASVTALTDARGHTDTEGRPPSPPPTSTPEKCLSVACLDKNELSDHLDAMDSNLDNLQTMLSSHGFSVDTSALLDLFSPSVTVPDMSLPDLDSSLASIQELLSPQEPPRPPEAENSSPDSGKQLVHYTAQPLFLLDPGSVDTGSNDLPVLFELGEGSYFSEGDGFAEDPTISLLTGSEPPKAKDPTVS
The experiment in a line: Inhibition of HSF1 (unknown origin) assessed as reduction in HSF1--mediated HSP transcription.

Assay [3] can be described thus: Induction of cell death in human MIAPaCa2 cells at 50 uM. It counts as functional, MIA PaCa-2.
Assay [4] in a line: Induction of cell death in human PANC1 cells at 50 uM. It counts as functional, PANC-1.
The nature of assay [5]: Antitumor activity against human MIAPaCa2 cells xenografted in mouse assessed as reduction in tumor volume at 150 mg/kg. It counts as functional, MIA PaCa-2. Also on record: scale not given: the % may be the effect or the level left.
Assay [6] addresses T2, Heat shock factor protein 1 (Homo sapiens) (UniProt Q00613).
T2 sequence (whole entry): T1 sequence (Q00613 whole entry)
The experiment in a line: Inhibition of HSF1 in human MM.1S cells assessed as potentiation of NVP-AUY-922-induced reduction in cell proliferation at 6 nM relative to NVP-AUY-922 alone. It counts as cell-based. Also noted: scale not given: the % may be the effect or the level left.

The target in assay [7] is T2, Heat shock factor protein 1 (Homo sapiens). The experiment in a line: Inhibition of HSF1 in human HeLa cells assessed as potentiation of radicicol and heat-induced increase in cell death at 60 nM relative to radicicol and heat alone. Also noted: scale not given: the % may be the effect or the level left. It counts as cell-based.
Assay [8] has the same target. The experiment in a line: Inhibition of HSF1 in human INA63 cells assessed as potentiation of NVP-AUY-922-induced reduction in cell proliferation at 5 nM relative to NVP-AUY-922 alone. It counts as cell-based. Also noted: scale not given: the % may be the effect or the level left.
Assay [9] shares this target. The experiment in a line: Inhibition of HSF1 in human H929 cells assessed as potentiation of 17-AAG-induced icrease in cell death at 100 nM relative to 17-AAG alone. Also noted: scale not given: the % may be the effect or the level left. It counts as cell-based.
The subject of assay [10] is A2058. The experiment in a line: Cytotoxicity against human A2058 cells in presence of HSF1 knock down treatment. It counts as functional, cell-based.
The test system of assay [11] is A-375. The experiment in a line: Cytotoxicity against human A375 cells in absence of HSF1 knock down treatment. It counts as functional, cell-based.
In assay [12] the test system is A-375. The experiment in a line: Cytotoxicity against human A375 cells in presence of HSF1 knock down treatment. It counts as functional, cell-based.
The test system of assay [13] is A2058. The experiment in a line: Cytotoxicity against human A2058 cells in absence of HSF1 knock down treatment. It counts as functional, cell-based.
Assay [14] has as its target T2, Heat shock factor protein 1 (Homo sapiens). The experiment in a line: Inhibition of HSF1 in human HCT116 cells assessed as potentiation of SM253-induced increase in cell death at 5 uM relative to SM253 alone. It counts as cell-based. Also noted: scale not given: the % may be the effect or the level left. The note with it: HCT-116.
The target is the same in assay [15]. The experiment in a line: Inhibition of HSF1 in human HCT116 cells assessed as potentiation of SM253-induced reduction in HSF1 at 5 uM relative to SM253 alone. It counts as cell-based. Also on record: scale not given: the % may be the effect or the level left. The note with it: HCT-116.
Assay [16] has the same target. The experiment in a line: Inhibition of HSF1 in human HCT116 cells assessed as potentiation of SM253-induced reduction in HSF1 at 50 uM relative to SM253 alone. It counts as cell-based. Also on record: scale not given: the % may be the effect or the level left. The note with it: HCT-116.
The target is the same in assay [17]. The experiment in a line: Inhibition of HSF1 in human MIAPaCa2 cells assessed as potentiation of SM253-induced increase in cell death at 50 uM relative to SM253 alone. It counts as cell-based. Also noted: scale not given: the % may be the effect or the level left. The note with it: MIA PaCa-2.
For assay [18] the target is unchanged. The experiment in a line: Inhibition of HSF1 in human MIAPaCa2 cells assessed as potentiation of SM253-induced reduction in HSF1 at 50 uM relative to SM253 alone. It counts as cell-based. Also noted: scale not given: the % may be the effect or the level left. The note with it: MIA PaCa-2.
Assay [19] has the same target. The experiment in a line: Inhibition of HSF1 in human HeLa cells assessed as potentiation of radicicol-induced increase in cell death at 2 uM relative to radicicol alone. It counts as cell-based. Also noted: scale not given: the % may be the effect or the level left.
For assay [20] the target is unchanged. The experiment in a line: Inhibition of HSF1 in human HCT116 cells assessed as potentiation of SM258-induced increase in cell death at 15 uM relative to SM258 alone. It counts as cell-based. Also noted: scale not given: the % may be the effect or the level left. The note with it: HCT-116.
Assay [21] shares this target. The experiment in a line: Inhibition of HSF1 in human HCT116 cells assessed as potentiation of SM258-induced increase in cell death at 30 uM relative to SM258 alone. Also on record: scale not given: the % may be the effect or the level left. The note with it: HCT-116. It counts as cell-based.
Assay [22] has the same target. The experiment in a line: Inhibition of HSF1 in human HCT116 cells assessed as potentiation of SM253-induced increase in cell death at 50 uM relative to SM253 alone. It counts as cell-based. Also on record: scale not given: the % may be the effect or the level left. The note with it: HCT-116.
Assay [23] shares this target. The experiment in a line: Inhibition of HSF1 in human HCT116 cells assessed as potentiation of SM258-induced reduction in HSF1 at 30 uM relative to SM258 alone. It counts as cell-based. The note with it: HCT-116. Also on record: scale not given: the % may be the effect or the level left.
Assay [24] shares this target. The experiment in a line: Inhibition of HSF1 in human HCT116 cells assessed as potentiation of SM258-induced reduction in HSF1 at 15 uM relative to SM258 alone. Also on record: scale not given: the % may be the effect or the level left. It counts as cell-based. The note with it: HCT-116.
The target is the same in assay [25]. The experiment in a line: Inhibition of HSF1 in human ASB244 cells assessed as potentiation of geldanamycin-induced reduction in cell proliferation at 20 uM relative to geldanamycin alone. It counts as cell-based. Also noted: scale not given: the % may be the effect or the level left.
The target is the same in assay [26]. The experiment in a line: Inhibition of HSF1 in human HL60 cells assessed as potentiation of 17-AAG-induced reduction in cologenicity at 400 uM relative to 17-AAG alone. It counts as cell-based. Also on record: scale not given: the % may be the effect or the level left. The note with it: HL-60.
Assay [27] shares this target. The experiment in a line: Inhibition of HSF1 in human ASB244 cells assessed as potentiation of geldanamycin-induced reduction in cell migration at 10 uM relative to geldanamycin alone. It counts as cell-based. Also on record: scale not given: the % may be the effect or the level left.
The target is the same in assay [28]. The experiment in a line: Inhibition of HSF1 in human ASB145 cells assessed as potentiation of geldanamycin-induced reduction in cell proliferation at 20 uM relative to geldanamycin alone. It counts as cell-based. Also on record: scale not given: the % may be the effect or the level left.
Assay [29] has the same target. The experiment in a line: Inhibition of HSF1 in human HL60 cells assessed as potentiation of 17-AAG-induced increase in apoptosis at 400 uM relative to 17-AAG alone. It counts as cell-based. Also noted: scale not given: the % may be the effect or the level left. The note with it: HL-60.

In the case of `CNc1ccc([N+](=O)[O-])c(Nc2ccc3[nH]ncc3c2)n1`, the inhibition in vivo (in general, the percentage by which the read-out fell short of the control) at 50 mg/kg in [1] worked out at 50%. For the same molecule, in assay [2], the IC50 (in general, the concentration that inhibits the measured activity by half) came to 1200 nM.
Regarding `CCCCCCCc1ccc(C#Cc2nc(C(N)=O)n([C@@H]3O[C@H](CO)[C@@H](O)[C@H]3O)n2)cc1`, the figures for the Activity in assay [3], in [4] and in assay [5] were 90%, 80% and 60%, respectively.
For the molecule `CC(C)[C@]12O[C@H]1[C@@H]1O[C@]13[C@]1(O[C@H]1C[C@H]1C4=C(CC[C@@]13C)C(=O)OC4)[C@@H]2O`, the Activity in assay [6] is 35%; in assay [7], 45%; in assay [8], 45%; in assay [9], 40%.
As to `COc1cccc(-c2cc(F)ccc2[C@H]2Cc3nc(N)nc(C)c3C(=O)N2)n1`, the IC50 in assay [10] was determined as 5.2 nM; in [11], 19 nM; in [12], 6 nM; in [13], 12.7 nM.
Regarding `CCC1CN2CCc3cc(OC)c(OC)cc3C2CC1CC1NCCc2ccccc21` (centres undefined), the Activity was determined as 50% in assay [14]; 30% in assay [15]; 60% in assay [16]; 64% in [17]; 55% in assay [18]; 30% in assay [19]. Moreover, the Activity is 77% in assay [20]; 95% in [21]; 77% in assay [22]; above 99% in [23]; 50% in [24].
Take `O=CN1CC/C(=C/c2ccc3c(c2)OCO3)C1=O`: the Activity in assay [25] was 52%; in assay [26], 99%; in assay [27], 75%; in [28], 72%; in [29], 20%.
